# Measured values reported in patent US9266830B2, “Pesticidal arylpyrrolidines” (Bayer Intellectual Property GmbH, priority 2007, dated 2016).
# Tested on: Boophilus microplus
# Test: Boophilus microplus test (injection)
# Format: in vivo
# Details: application rate 20 μg/animal, adult engorged females, after 7 days
# Description: Solvent: dimethyl sulfoxide
# To produce a suitable preparation of active compound, 10 mg of active compound are dissolved in 0.5 ml solvent, and the concentrate is diluted with solvent to the desired concentration. Five adult engorged female ticks (Boophilus microplus) are injected with compound solution into the abdomen. Ticks are transferred into replica plates and incubated in a climate chamber for a period of time. Egg deposition of fertile eggs is monitored. After 7 days mortality in % is determined 100% means that all eggs are infertile; 0% means that all eggs are fertile.
structure (smiles),measurement,value
CC(C)C(=O)NCc1ccc(N2CCC(c3cc(Cl)c(Cl)c(Cl)c3)(C(F)(F)F)C2)cc1C(F)(F)F (centres unmarked) [1-329],activity (100% means that all eggs are infertile),100%
CCNC(=O)NCc1ccc(N2CCC(c3cc(Cl)c(Cl)c(Cl)c3)(C(F)(F)F)C2)cc1C(F)(F)F (centres unmarked) [1-330],activity (100% means that all eggs are infertile),100%
CCC(=O)NCc1ccc(N2CCC(c3cc(Cl)c(Cl)c(Cl)c3)(C(F)(F)F)C2)cc1Cl (centres unmarked) [1-338],activity (100% means that all eggs are infertile),100%
O=C(NCc1ccc(N2CCC(c3cc(Cl)c(Cl)c(Cl)c3)(C(F)(F)F)C2)cc1Cl)C1CC1 (centres unmarked) [1-339],activity (100% means that all eggs are infertile),100%
CCNC(=O)NCc1ccc(N2CCC(c3cc(Cl)c(Cl)c(Cl)c3)(C(F)(F)F)C2)cc1Cl (centres unmarked) [1-341],activity (100% means that all eggs are infertile),100%
CCC(=O)NCc1ccc(N2CCC(c3cc(Cl)c(Cl)c(Cl)c3)(C(F)(F)F)C2)cc1Br (centres unmarked) [1-345],activity (100% means that all eggs are infertile),100%
O=C(NCc1ccc(N2CCC(c3cc(Cl)c(Cl)c(Cl)c3)(C(F)(F)F)C2)cc1Br)C1CC1 (centres unmarked) [1-346],activity (100% means that all eggs are infertile),100%
O=C(NCc1ccc(N2CCC(c3cc(Cl)cc(C(F)(F)F)c3)(C(F)(F)F)C2)cc1C(F)(F)F)C1CC1 (centres unmarked) [1-357],activity (100% means that all eggs are infertile),100%
O=C(CC(F)(F)F)NCc1cnc(N2CCC(c3cc(Cl)c(Cl)c(Cl)c3)(C(F)(F)F)C2)cc1C(F)(F)F (centres unmarked) [1-380],activity (100% means that all eggs are infertile),100%
CCNC(=O)NCc1cnc(N2CCC(c3cc(Cl)c(Cl)c(Cl)c3)(C(F)(F)F)C2)cc1C(F)(F)F (centres unmarked) [1-381],activity (100% means that all eggs are infertile),100%
O=C(CC(F)(F)F)NCc1cnc(N2CCC(c3cc(C(F)(F)F)cc(C(F)(F)F)c3)(C(F)(F)F)C2)cc1C(F)(F)F (centres unmarked) [1-386],activity (100% means that all eggs are infertile),100%
CC(NC(=O)NCc1ccc(N2CCC(c3cc(Cl)cc(Cl)c3)(C(F)(F)F)C2)cc1Cl)C(F)(F)F (centres unmarked) [1-442],activity (100% means that all eggs are infertile),100%
CC(NC(=O)NCc1ccc(N2CCC(c3cc(Cl)cc(Cl)c3)(C(F)(F)F)C2)cc1Cl)c1nccs1 (centres unmarked) [1-446],activity (100% means that all eggs are infertile),100%
CC(Br)C(=O)NCc1ccc(N2CCC(c3cc(Cl)cc(Cl)c3)(C(F)(F)F)C2)cc1Cl (centres unmarked) [1-458],activity (100% means that all eggs are infertile),100%
FC(F)(F)C1(c2cc(Cl)cc(Cl)c2)CCN(c2ccc(CNC(=S)NC3CC3)c(Cl)c2)C1 (centres unmarked) [1-468],activity (100% means that all eggs are infertile),100%
C[S+]([O-])CC(=O)NCc1ccc(N2CCC(c3cc(Cl)cc(Cl)c3)(C(F)(F)F)C2)cc1C(F)(F)F (centres unmarked) [1-494],activity (100% means that all eggs are infertile),100%
CS(=O)(=O)CC(=O)NCc1ccc(N2CCC(c3cc(Cl)cc(Cl)c3)(C(F)(F)F)C2)cc1C(F)(F)F (centres unmarked) [1-495],activity (100% means that all eggs are infertile),100%
CC[S+]([O-])CC(=O)NCc1ccc(N2CCC(c3cc(Cl)cc(Cl)c3)(C(F)(F)F)C2)cc1C(F)(F)F (centres unmarked) [1-500],activity (100% means that all eggs are infertile),100%
CCS(=O)(=O)CC(=O)NCc1ccc(N2CCC(c3cc(Cl)cc(Cl)c3)(C(F)(F)F)C2)cc1C(F)(F)F (centres unmarked) [1-501],activity (100% means that all eggs are infertile),100%
C=CCSCC(=O)NCc1ccc(N2CCC(c3cc(Cl)cc(Cl)c3)(C(F)(F)F)C2)cc1C(F)(F)F (centres unmarked) [1-503],activity (100% means that all eggs are infertile),100%
C=CC[S+]([O-])CC(=O)NCc1ccc(N2CCC(c3cc(Cl)cc(Cl)c3)(C(F)(F)F)C2)cc1C(F)(F)F (centres unmarked) [1-504],activity (100% means that all eggs are infertile),100%
C=CCS(=O)(=O)CC(=O)NCc1ccc(N2CCC(c3cc(Cl)cc(Cl)c3)(C(F)(F)F)C2)cc1C(F)(F)F (centres unmarked) [1-505],activity (100% means that all eggs are infertile),100%
CSCC(=O)NCc1ccc(N2CCC(c3cc(Cl)c(Cl)c(Cl)c3)(C(F)(F)F)C2)cc1C(F)(F)F (centres unmarked) [1-728],activity (100% means that all eggs are infertile),100%
C[S+]([O-])CC(=O)NCc1ccc(N2CCC(c3cc(Cl)c(Cl)c(Cl)c3)(C(F)(F)F)C2)cc1C(F)(F)F (centres unmarked) [1-729],activity (100% means that all eggs are infertile),100%
CS(=O)(=O)CC(=O)NCc1ccc(N2CCC(c3cc(Cl)c(Cl)c(Cl)c3)(C(F)(F)F)C2)cc1C(F)(F)F (centres unmarked) [1-730],activity (100% means that all eggs are infertile),100%
C=CCSCC(=O)NCc1ccc(N2CCC(c3cc(Cl)c(Cl)c(Cl)c3)(C(F)(F)F)C2)cc1C(F)(F)F (centres unmarked) [1-732],activity (100% means that all eggs are infertile),100%
C=CC[S+]([O-])CC(=O)NCc1ccc(N2CCC(c3cc(Cl)c(Cl)c(Cl)c3)(C(F)(F)F)C2)cc1C(F)(F)F (centres unmarked) [1-733],activity (100% means that all eggs are infertile),100%
CC(=O)CC(=O)NCc1ccc(N2CCC(c3cc(C(F)(F)F)cc(C(F)(F)F)c3)(C(F)(F)F)C2)cc1C(F)(F)F (centres unmarked) [1-963],activity (100% means that all eggs are infertile),100%
CSCC(=O)NCc1ccc(N2CCC(c3cc(C(F)(F)F)cc(C(F)(F)F)c3)(C(F)(F)F)C2)cc1C(F)(F)F (centres unmarked) [1-966],activity (100% means that all eggs are infertile),100%
C[S+]([O-])CC(=O)NCc1ccc(N2CCC(c3cc(C(F)(F)F)cc(C(F)(F)F)c3)(C(F)(F)F)C2)cc1C(F)(F)F (centres unmarked) [1-967],activity (100% means that all eggs are infertile),100%
CS(=O)(=O)CC(=O)NCc1ccc(N2CCC(c3cc(C(F)(F)F)cc(C(F)(F)F)c3)(C(F)(F)F)C2)cc1C(F)(F)F (centres unmarked) [1-968],activity (100% means that all eggs are infertile),100%
C=CCSCC(=O)NCc1ccc(N2CCC(c3cc(C(F)(F)F)cc(C(F)(F)F)c3)(C(F)(F)F)C2)cc1C(F)(F)F (centres unmarked) [1-969],activity (100% means that all eggs are infertile),100%
C=CC[S+]([O-])CC(=O)NCc1ccc(N2CCC(c3cc(C(F)(F)F)cc(C(F)(F)F)c3)(C(F)(F)F)C2)cc1C(F)(F)F (centres unmarked) [1-970],activity (100% means that all eggs are infertile),100%
C=CCS(=O)(=O)CC(=O)NCc1ccc(N2CCC(c3cc(C(F)(F)F)cc(C(F)(F)F)c3)(C(F)(F)F)C2)cc1C(F)(F)F (centres unmarked) [1-971],activity (100% means that all eggs are infertile),100%
O=C(NCC(F)(F)F)c1cnc(N2CCC(c3cc(C(F)(F)F)cc(C(F)(F)F)c3)(C(F)(F)F)C2)nc1C(F)(F)F (centres unmarked) [2-34],activity (100% means that all eggs are infertile),100%
O=C(NCc1ccccn1)c1cnc(N2CCC(c3cc(C(F)(F)F)cc(C(F)(F)F)c3)(C(F)(F)F)C2)nc1C(F)(F)F (centres unmarked) [2-35],activity (100% means that all eggs are infertile),100%
CC(=O)NCc1cnc(N2CCC(c3cc(Cl)c(Cl)c(Cl)c3)(C(F)(F)F)C2)nc1C(F)(F)F (centres unmarked) [3-141],activity (100% means that all eggs are infertile),100%
O=C(NCc1cnc(N2CCC(c3cc(Cl)c(Cl)c(Cl)c3)(C(F)(F)F)C2)nc1C(F)(F)F)C1CC1 (centres unmarked) [3-143],activity (100% means that all eggs are infertile),100%
O=C(CC(F)(F)F)NCc1cnc(N2CCC(c3cc(Cl)c(Cl)c(Cl)c3)(C(F)(F)F)C2)nc1C(F)(F)F (centres unmarked) [3-144],activity (100% means that all eggs are infertile),100%
CCNC(=O)NCc1cnc(N2CCC(c3cc(Cl)c(Cl)c(Cl)c3)(C(F)(F)F)C2)nc1C(F)(F)F (centres unmarked) [3-145],activity (100% means that all eggs are infertile),100%
NCc1cnc(N2CCC(c3cc(C(F)(F)F)cc(C(F)(F)F)c3)(C(F)(F)F)C2)nc1C(F)(F)F (centres unmarked) [3-146],activity (100% means that all eggs are infertile),100%
CCC(=O)NCc1cnc(N2CCC(c3cc(C(F)(F)F)cc(C(F)(F)F)c3)(C(F)(F)F)C2)nc1C(F)(F)F (centres unmarked) [3-148],activity (100% means that all eggs are infertile),100%
O=C(NCc1cnc(N2CCC(c3cc(C(F)(F)F)cc(C(F)(F)F)c3)(C(F)(F)F)C2)nc1C(F)(F)F)C1CC1 (centres unmarked) [3-149],activity (100% means that all eggs are infertile),100%
O=C(CC(F)(F)F)NCc1cnc(N2CCC(c3cc(C(F)(F)F)cc(C(F)(F)F)c3)(C(F)(F)F)C2)nc1C(F)(F)F (centres unmarked) [3-150],activity (100% means that all eggs are infertile),100%
